In general, melting point refers to the temperature, or range, at which the solid turns liquid. `O=CCCCCCCCCCCC(=O)O` returned a melting point of 53 to 54 °C. As for `CNC(=O)C(=NOCF)c1ccccc1Oc1ncnc(Oc2ccccc2Cl)c1F`, the melting point lay within 128 to 129 °C. Then `Cc1cc(N2C(=O)N(CCCCCCCCCSCCCC(F)(F)C(F)(F)F)C(C)(C)C2=O)ccc1NS(N)(=O)=O`, with 102 to 104 °C. Under `COc1nc(OC)nc(Oc2ccccc2C(=O)O)n1` stands 152 °C; under `O=C(NNc1ccc(Cl)cc1)c1cnc2ccc(I)cc2c1O`, 250 to 252 °C. Then `CCOC(=O)c1cn(C)c2nc3cc(N4CCN[C@@H](c5ccccc5)C4)c(F)cc3cc2c1=O`, with 221 °C; and `FC(F)(F)c1ccn(-c2ccnc(Cl)n2)n1`, with 111 to 112 °C. Regarding `COc1cc(CNc2nc(C)nc(C)c2Cl)ccc1O`, the melting point was in the range of 179 to 182 °C. Under `CC1CCCC(C)N1Cc1ccc(COc2cccc3c2CN(C2CCC(=O)NC2=O)C3=O)cc1` (stereo not given) stands 205 to 207 °C. `CC(C)(C)OC(=O)N1CCN(c2nsc3ccccc23)CC1` registered a melting point of 105 to 107 °C. Under `O=C(CBr)CC(=O)Nc1cccc(C(F)(F)F)c1` stands 66 to 68 °C; under `O=C(O)c1csnc1-c1cc(C(F)(F)F)cc(C(F)(F)F)c1`, 151 to 154 °C; under `CC1Cc2cc3c(cc2C(c2ccc(N)cc2)=NN1C(=O)Nc1ccccc1)OCO3` (stereo not given), 118 to 120 °C. Under `Cc1nc2cc(Cn3ccnc3)ccc2n1Cc1cccnc1` stands 174 °C; under `O=C(O)Cc1ccc(OCCNC(=O)C2Cc3ccccc3N2S(=O)(=O)c2ccc(-c3ccc(F)cc3Cl)cc2)cc1` (stereo not given), 90 °C; under `NS(=O)(=O)c1cc(C(=O)O)cc(SCc2ccccn2)c1-c1ccccc1`, 83 to 86 °C. Then `O=C(Nc1ccc(Oc2ccc(Cl)cc2)nc1)N1CCc2ccccc2CC1`, with 135 to 137 °C; and `CCOC(=O)COC1OCC[C@@H]1NC(=O)[C@H](Cc1ccccc1)NC(=O)OCc1ccccc1` (stereo not given in full), with 103 to 106 °C; and `CC(C)c1ccc2cc(OCCF)ccc2c1`, with 46 to 48 °C. `CC(C)(C)C(=O)Oc1ccc(C(=O)c2ccc(OC(=O)C(C)(C)C)cc2OC(=O)C(C)(C)C)c(OC(=O)C(C)(C)C)c1` showed a melting point of 154 to 156 °C. Then `Nc1nc(SC2CCC2)c2ncn(C3C=CC(CO)C3)c2n1` (stereo not given), with 159 to 160 °C; and `COc1cccc(CC(=O)O)c1OCCCc1cn(-c2ccc(C(F)(F)F)cn2)nc1C1CCCCC1`, with 140 to 141 °C; and `COc1ccc(C(=O)NCCCCCCCNC(=O)c2ccc(OC)c(OC)c2)cc1OC`, with 160 to 161 °C. Molecule `Cc1nc(-c2ccc(C(=O)N[C@H]3CC[C@H](CCN4CCC(c5cccc6c5CCO6)CC4)CC3)cc2)no1` registered a melting point of 256 °C. Then `COCCO[C@@H]1c2ccn3c(C)c(C)nc3c2N[C@H](c2ccccc2)[C@H]1OC(=O)OC`, with 176 to 177 °C; and `Nc1ccccc1SSc1ccccc1N`, with 88 to 89 °C; and `COc1cc(O)c(C=O)cc1C12CC3CC(CC(C3)C1)C2`, with 191 to 193 °C. `CC(=O)NC(Cc1ccccc1)C1CC(Cc2ccccc2)=NO1` (stereo not given): the melting point lay within 97.8 to 98.4 °C. Then `CCOC1C(=O)NC(=O)N1CCCc1ccccc1` (stereo not given), with 64 °C. Consider `O=C1Cc2ccccc2N1c1ccsc1`, for which the melting point lay within 62 to 67 °C.

In turn, `C#CCSc1nn(C(=O)NS(=O)(=O)c2c(C)csc2C(=O)OCC)c(=O)n1C` had a melting point of 175 °C. Take `NCCC1CCSc2[nH]c3ccccc3c21` (stereo not given): the melting point is 136 to 138 °C.

Molecule `COCn1ccnc1C(O)(c1ccccc1)c1ccc(Cl)cc1Cl` (stereo not given) showed a melting point of 161 to 162 °C. Regarding `COc1ccc(C=C(Cl)Cl)c(C(=O)O)c1`, the melting point is 164 to 166 °C. In turn, `OC(CNc1ccc(Cl)c(Cl)c1)Cn1ccnc1` (stereo not given) gave a melting point of 98 to 100 °C.

These data come from a melting point compilation (Tetko et al.; mined from patent text by program, amines drawn as free bases though some values may be those of a salt).
